Measurements published in US20170240593A1, “AROMATIC-CATIONIC PEPTIDES AND USES OF SAME” (Cornell University, priority 2011, published 2017).
Entries after “also recorded” stand apart in the source; their conditions may differ. Non-standard residues stand in square brackets, D forms with d. No end group written: not given here.

Tests used:
[1] = system: H2O2, hydroxyl radical, and peroxynitrite; experiment: Neutralization of reactive species and lipid peroxidation; format: biochemical
mitochondrial ROS = experiment: Cellular and animal studies of mitochondrial ROS and function
[2] = system: animal models of ischemia-reperfusion injury, neurodegenerative diseases, and metabolic syndrome; experiment: Animal models of ischemia-reperfusion injury, neurodegenerative diseases, and metabolic syndrome; format: in vivo
cytochrome c [3] = molecular target: T1, cytochrome c (Homo sapiens, UniProt P99999); experiment: Cytochrome c reduction by absorption spectroscopy (absorbance at 550 nm); format: biochemical; details: for rate of cytochrome c reduction: glutathione (GSH) as reducing agent, absorbance at 550 nm, FIG. 1B, FIG. 13
Description: Cytochrome c reduction: increasing amounts of aromatic-cationic peptides were added to a solution of oxidized cytochrome c. The formation of reduced cytochrome c was monitored by absorbance at […]. The rate of cytochrome c reduction was determined by non-linear analysis (Prizm software).
Time-resolved UV-Visible absorption spectroscopy was used to study the electron transport process of cytochrome c in the presence of peptides. Reduced cytochrome c was monitored by absorbance at a broad-band spectral range (200-1100 nm). The absorption changes were recorded with a UV/Visible spectrophotometer (Ultrospec 3300 pro, GE) in quartz cells with path lengths of 1 or 2 mm. N-acetylcysteine (NAC) and glutathione were used as electron donors to reduce oxidized cytochrome c. The rate constant of cytochrome c reduction was estimated by adding various concentrations of peptides. The dose dependence of the peptides was correlated to the cytochrome c reduction kinetics.
Absorption spectroscopy (UltroSpec 3300 Pro; 220-1100 nm) was used to determine if SS-31 modulates cytochrome c reduction (FIG. 1). Reduction of cytochrome c with glutathione is associated with multiple shifts in the Q band (450-650 nm), with a prominent shift at 550 nm.
SS-31 and SS-20 can accelerate the kinetics of cytochrome c reduction induced by glutathione (GSH) as a reducing agent (FIG. 13). Reduction of cytochrome c was monitored by increase in absorbance at 550 nm. […] Similar results were obtained using N-acetylcysteine (NAC) as a reducing agent (not shown).

cytochrome c [4] = molecular target: T1, cytochrome c; experiment: Circular dichroism of Soret band of cytochrome c; format: biochemical; details: FIG. 4
Description: Circular dichroism (Olis spectropolarimeter, DSM20) was carried out to monitor Soret band (negative peak at 415 nm), as a probe for the π-π* heme environment in cytochrome c (FIG. 4). […] The increase in π-π* interaction around the heme would enhance electron tunneling which would be favorable for electron diffusion.

cytochrome c [5] = molecular target: T1, cytochrome c; experiment: Photoluminescence of cytochrome c (532.8 nm excitation, 650 nm emission); format: biochemical; details: Nd:YDO4 laser 532.8 nm
Excerpt: A light source 140, such as a laser or light-emitting diode (LED), illuminates the peptide-doped cytochrome c layer 110 at an excitation wavelength, such as 532.8 nm. […] (As understood by those skilled in the art, the gap between the valence band and the excited state is […] to the excitation wavelength.) After a short relaxation time, the electron decays from the excited state to a conduction band. When the electron relaxes to valence band from the conduction band, the peptide-doped cytochrome c layer 110 emits a photon at a luminescence wavelength, such as 650 nm, fixed by the gap between the valence and conduction bands.
Thus, as the aromatic-cationic peptide concentration in the peptide-doped cytochrome c layer 110 varies due to changes in the pH and/or temperature of the test substrate 130, the intensity at the luminescence wavelength varies as well. Detecting this change in intensity with a photodetector 150 yields an indication of the pH and/or temperature of the test substrate 130.
Photoluminescence (PL) was carried out to examine the effects of SS-31 on the electronic structure of conduction band of the […] of cytochrome c, an energy state responsible for electronic transport (FIG. 3). A […] laser (532.8 nm) was used to excite electrons in cytochrome c (FIG. 2A). Strong PL emission in cytochrome c state can be clearly identified at 650 nm (FIG. 2B).

cytochrome c [6] = molecular target: T1, cytochrome c; experiment: Cyclic voltammetry of cytochrome c; format: biochemical
[7] = system: isolated rat kidney mitochondria; experiment: O2 consumption of isolated rat kidney mitochondria (Oxygraph); format: biochemical; details: for electron flux, as measured by O2 consumption: 100 μM peptide, 0.5 mM succinate (complex II substrate) and 400 μM ADP, FIG. 14
Description: (§1) Mitochondrial O2 consumption and ATP production: Fresh mitochondria were isolated from rat kidney as described previously. Electron flux was measured by O2 consumption (Oxygraph Clark electrode) as previously described using different substrates for C1 (glutamate/malate), C2 (succinate), and C3 (TMPD/ascorbate). Assays were carried out under low substrate conditions in order to avoid saturating the enzyme reactions. ATP production in isolated mitochondria was determined kinetically using the luciferase method (Biotherma) in a 96-well luminescence plate reader (Molecular Devices). The initial maximal rate for ATP synthesis was determined over the first minute.
Oxygen consumption of isolated rat kidney mitochondria was determined using the Oxygraph (FIG. 5). Rates of respiration were measured in the presence of different concentrations of SS-31 in state 2 (400 μM ADP only), state 3 (400 μM ADP and 500 μM substrates) and state 4 (substrates only). All experiments were done in triplicate with n=4-7.
(§2) SS-20 or SS-31 was added at 100 μM concentrations to isolated mitochondria in respiration buffer containing 0.5 mM succinate (complex II substrate) and 400 μM ADP.

[8] = system: cytochrome c-depleted mitoplasts made from once-frozen rat kidney mitochondria; experiment: O2 consumption in cytochrome c-depleted mitoplasts; format: biochemical; details: 500 μM Succinate, 100 μM SS-31; FIG. 7
Description: Rates of respiration were measured in the presence of 500 μM Succinate with or without 100 μM SS-31. The experiment was carried out in triplicate, with n=3.

isolated mitochondria = experiment: ATP synthesis in isolated mitochondria; format: biochemical, rat; details: for rate of ATP production: isolated mitochondria energized with low concentrations of succinate, FIG. 15
Description: as §1
The rate of mitochondrial ATP synthesis was determined by measuring ATP in respiration buffer collected from isolated mitochondria 1 min after addition of […] (FIG. 6). ATP was assayed by HPLC. All experiments were carried out in triplicate, with n=3.
as §2

T1 sequence (P99999 whole entry, species assumed): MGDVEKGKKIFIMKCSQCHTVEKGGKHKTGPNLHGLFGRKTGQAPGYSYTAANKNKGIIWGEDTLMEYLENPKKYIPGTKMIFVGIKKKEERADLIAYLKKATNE

Substance: D-Arg-2′6′-Dmt-Tyr-Lys-Phe-NH2
- lipid peroxidation [1]: inhibit lipid peroxidation
- neutralization of H2O2, hydroxyl radical, and peroxynitrite [1]: can neutralize H2O2, hydroxyl radical, and peroxynitrite
- mitochondrial ROS and mitochondrial function (mitochondrial ROS): reduces mitochondrial ROS and protect mitochondrial function
- efficacy in animal models [2]: remarkable efficacy

Substance: D-Arg-2′,6′-Dmt-Lys-Phe-NH2 [SS-31]
- rate of NAC-induced cytochrome c reduction (cytochrome c [3]; N-acetylcysteine (NAC) as reducing agent): dose-dependently increased
- rate of cytochrome c reduction (cytochrome c [3]): increased; also recorded: accelerate
- reduction of cytochrome c by peptide alone (cytochrome c [3]; peptide alone at 100 μM, no reducing agent): did not reduce cytochrome c
- spectral weight shift at 550 nm of cytochrome c (cytochrome c [3]; reduction of cytochrome c with glutathione, FIG. 1A): significant spectral weight shift
- denaturing of cytochrome c (cytochrome c [4]): without denaturing
- Soret band peak position after red shift (cytochrome c [4]; negative peak at 415 nm without peptide): 440 nm
- PL intensity of cytochrome c at 650 nm (cytochrome c [5]): increased dose-dependently
- current for reduction and oxidation processes of cytochrome c (cytochrome c [6]; Au working electrode, Ag/AgCl reference, FIG. 2 upper panel): increased current
- reduction/oxidation potentials of cytochrome c (cytochrome c [6]; FIG. 2 upper panel): does not alter
- increase of current (electron diffusion rate) (cytochrome c [6]; cytochrome c:SS-31=1:2, TBE buffer, FIG. 2 lower panel): ~200%
- electron flux, as measured by O2 consumption [7]: promote electron flux
- rates of respiration (O2 consumption) ([7]; different concentrations of SS-31, state 2, state 3 and state 4, FIG. 5): promoted electron transfer to oxygen without uncoupling mitochondria
- mitochondrial O2 consumption (rates of respiration) in cytochrome c-depleted mitoplasts [8]: Enhances Respiration
- rate of ATP synthesis (isolated mitochondria; ATP by HPLC 1 min after addition of 400 mM ADP, FIG. 6): dose-dependently increased
- rate of ATP production (isolated mitochondria): significant increase

Substance: F[dR]FK-NH2 [SS-20]
- rate of cytochrome c reduction (cytochrome c [3]): accelerate
- electron flux, as measured by O2 consumption [7]: promote electron flux
- rate of ATP production (isolated mitochondria): significant increase
